Converted amounts (≈) assume the structure as drawn. Where two headings read alike, the source gives them in different places. Where only a bound is given, the exact number is not on record here.

Assay [1] has as its target T1, Class D beta-lactamase OXA 23 (A baumannii NCTC 13301) (Acinetobacter baumannii, UniProt Q9L4P2).
T1 construct: preincubated mixture of crude enzyme and the compounds; endogenous in cells; host or cells: A. baumannii NCTC 13301 (crude enzyme preparation)
As to the kind of experiment: Beta-lactamase enzyme inhibition (Nitrocefin, crude enzyme). The conditions noted are these: A baumannii NCTC 13301 (OXA 23), Nitrocefin 100 μM. Format: biochemical. The procedure:
(§1) Absorbance was measured at 485 nm by UV-spectrophotometer. The IC50 was calculated by plotting absorbance against concentration through Sigmoidal dose response curve using Graph Pad software.

The subject of assay [2] is Class C beta-lactamase CMY/DHA (E. coli M50). The description is as above. Format: biochemical. The following applies: Nitrocefin 100 μM. The procedure: as §1
The target of assay [3] is Class A beta-lactamase SHV 18 (K. pneumoniae ATCC 700603) (Klebsiella pneumoniae, UniProt P0AD64). The assay is described as above. Format: biochemical. The following applies: read-out: Beta-lactamase enzyme inhibition IC50, K. pneumoniae ATCC 700603 (SHV 18), Nitrocefin 100 μM. On the procedure: as §1
Chain of Class A beta-lactamase SHV 18 (K. pneumoniae ATCC 700603) (P0AD64 22-286 limits assumed): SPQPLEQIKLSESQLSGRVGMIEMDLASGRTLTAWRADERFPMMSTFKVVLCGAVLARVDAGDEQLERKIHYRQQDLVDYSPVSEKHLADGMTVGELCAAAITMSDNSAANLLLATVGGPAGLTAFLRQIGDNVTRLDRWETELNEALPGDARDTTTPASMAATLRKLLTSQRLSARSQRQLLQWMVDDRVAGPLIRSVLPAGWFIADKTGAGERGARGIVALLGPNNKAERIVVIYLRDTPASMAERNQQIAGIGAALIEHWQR
Assay [4] deals with K. Pneomoniae S48 (NDM, SHV, TEM). As to the kind of experiment: Agar dilution MIC (CLSI), compound alone. Format: cell-based, K. pneumoniae. The conditions noted are these: Klebsiella pneumoniae. On the procedure:
(§2) The biological activity of representative compounds according to the invention against various bacterial strains was investigated. In a typical study, overnight grown bacterial cultures were diluted appropriately and inoculated on the agar media containing doubling dilutions of the test compounds. Observations for growth or no growth was performed after 16-20 hours of incubation at 35±2° C. in the ambient air. The overall procedure was performed as per Clinical and Laboratory Standards Institute (CLSI) recommendations, (Clinical and Laboratory Standards Institute (CLSI), Performance Standards for Antimicrobial Susceptibility Testing, 20th Informational Supplement, M 07-A9, Volume 32, No. 2, 2012). Molten Mueller Hinton Agar (BD, USA) containing serial dilutions of each antibacterial agent were poured on to the plates and allowed to solidify. Appropriate suspensions from the freshly grown cultures were prepared in normal saline so that about 10^4 CFU/spot of the organism was delivered on to the drug containing agar plates using automated multipoint inoculator (Mast, UK). The plates were incubated in Biochemical oxygen demand (BOD) incubator at 37° C. for 18 hours and then examined for growth.
(In general: Agar dilution tests growth on a series of plates holding different concentrations.)

The test system of assay [5] is K. pneumoniae H521 (KPC, SHV, TEM). As to the kind of experiment: Agar dilution MIC (CLSI), compound alone. Format: cell-based. The conditions noted are these: Klebsiella pneumoniae. On the procedure: as §2
The subject of assay [6] is E. coli NCTC 13353 (CTX-M15, OXA-1). As to the kind of experiment: Agar dilution MIC (CLSI), compound alone. In kind it is cell-based. The conditions noted are these: Escherichia coli. The procedure: as §2
The subject of the next assay is K. pneumoniae B 77. As to the kind of experiment: Agar dilution MIC (CLSI), compound alone. Format: cell-based. The conditions noted are these: Klebsiella pneumoniae, B77; K. pneumoniae B 77; Table 3; read-out: MIC. The procedure: as §2
Setting [7] is: K. Pneomoniae S48 (NDM, SHV, TEM), compound alone, Table 2, read-out: MIC.
Where [8] appears, read: K. pneumoniae H521 (KPC, SHV, TEM), compound alone, Table 2, read-out: MIC.
Setting [9] is: NCTC13353, E. coli NCTC 13353 (CTX-M15, OXA-1), compound alone, Table 2, read-out: MIC.

T1 sequence (Q9L4P2 18-273): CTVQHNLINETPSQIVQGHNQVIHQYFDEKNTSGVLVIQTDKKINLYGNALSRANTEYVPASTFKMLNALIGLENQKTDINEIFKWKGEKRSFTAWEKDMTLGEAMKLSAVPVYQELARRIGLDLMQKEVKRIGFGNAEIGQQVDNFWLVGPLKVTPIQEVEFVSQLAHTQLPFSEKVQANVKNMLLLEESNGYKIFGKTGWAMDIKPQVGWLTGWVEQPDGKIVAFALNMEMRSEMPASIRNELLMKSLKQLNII

As usually defined, the IC50 is the concentration at which inhibition is half-maximal. For orientation: MIC means the lowest concentration found to suppress growth. As to `CN(C)c1ccc(Cc2nnc([C@@H]3CC[C@@H]4CN3C(=O)N4OS(=O)(=O)O)o2)cc1` [Example 12, (2S,5R)-sulfuric acid mono-{2-[5-(4-dimethylamino-benzyl)-[1,3,4]-oxadiazol-2-yl]-7-oxo-1,6-diaza-bicyclo[3.2.1]oct-6-yl} ester], the half-maximal inhibitory concentration (IC50) in assay [1] came out at 97 nM; in assay [2], 6 nM; in assay [3], 10 nM. For the same compound, the MIC in assay [4] (setting [7]), in assay [5] (setting [8]) and in assay [6] (setting [9]) was greater than 32 µg/mL in each case.
With `O=C1N2C[C@@H](CC[C@H]2c2nnc(CC(c3ccccc3)c3ccccc3)o2)N1OS(=O)(=O)O` [Example 9, (2S,5R)-sulfuric acid mono-{2-[5-(2,2-diphenyl-ethyl)-[1,3,4]-oxadiazol-2-yl]-7-oxo-1,6-diaza-bicyclo[3.2.1]oct-6-yl} ester], the concentration for half-maximal inhibition (IC50) turned out to be 240 nM in assay [1] and 4 nM in assay [3]. Besides, the minimal inhibitory concentration (MIC) in assay [4] (setting [7]), in assay [5] (setting [8]) and in assay [6] (setting [9]) was greater than 32 µg/mL each time.
Turning to `O=C1N2C[C@@H](CC[C@H]2c2nnc(CC3CNC3)o2)N1OS(=O)(=O)O` [Example 1, (2S,5R)-Sulfuric acid mono-[2-(5-azetidin-3-ylmethyl-1,3,4-oxadiazol-2-yl)-7-oxo-1,6-diaza-bicyclo[3.2.1]oct-6-yl]ester], the IC50 was determined as 3950 nM in assay [1], 402 nM in assay [2] and 27 nM in assay [3]. Moreover, the minimal inhibitory concentration (MIC) in assay [4] (setting [7]), in assay [5] (setting [8]) and in assay [6] (setting [9]) was greater than 32 µg/mL in each case.
In the case of `O=C(O)[C@H]1/C(=C/CO)O[C@@H]2CC(=O)N21` [Clavulanic acid, clavulanic acid, reference compound], the half-inhibitory concentration (IC50) in assay [2] is greater than 10000 nM.
Consider `NC(=O)[C@@H]1CC[C@@H]2CN1C(=O)N2OS(=O)(=O)O` [Avibactam, avibactam, reference compound], for which the values for the half-maximal inhibitory concentration (IC50) in assay [2] and in assay [3] were 146 nM and 98 nM, respectively. Moreover, the MIC with K. pneumoniae B 77 was determined as 32 µg/mL (≈ 121 µM).
With `Nc1ccc(Cc2nnc([C@@H]3CC[C@@H]4CN3C(=O)N4OS(=O)(=O)O)o2)cc1` [Example 11, (2S,5R)-sulfuric acid mono-{2-[5-(4-amino-benzyl)-[1,3,4]-oxadiazol-2-yl]-7-oxo-1,6-diaza-bicyclo[3.2.1]oct-6-yl} ester], the concentration for half-maximal inhibition (IC50) in assay [1] amounted to 108 nM; in assay [2], 13 nM. For the same compound, the minimal inhibitory concentration (MIC) in assay [4] is 32 µg/mL (≈ 80.9 µM); in assay [5] it was greater than 32 µg/mL; in assay [6] (NCTC13353), greater than 32 µg/mL.
As to `O=C1N2C[C@@H](CC[C@H]2c2nnc(CC3CNCCN3)o2)N1OS(=O)(=O)O` (stereo partly drawn) [Example 4, (2S,5R)-sulfuric acid mono[2-(5-(RS)-piperazin-2-ylmethyl-[1,3,4]-oxadiazol-2-yl)-7-oxo-1,6-diaza-bicyclo[3.2.1]oct-6-yl] ester], the concentration for half-maximal inhibition (IC50) was determined as 410 nM in assay [1] and 27 nM in assay [3]. The minimal inhibitory concentration (MIC) in assay [4] (18 h, K. Pneomoniae S48 (NDM, SHV, TEM), compound alone, Table 2, read-out: MIC) was greater than 32 µg/mL; in assay [5] (18 h, K. pneumoniae H521 (KPC, SHV, TEM), compound alone, Table 2, read-out: MIC), greater than 32 µg/mL; in assay [6] (NCTC13353, 18 h, E. coli NCTC 13353 (CTX-M15, OXA-1), compound alone, Table 2, read-out: MIC), greater than 32 µg/mL.
As to `O=C1N2C[C@@H](CC[C@H]2c2nnc(CC3CCNCC3)o2)N1OS(=O)(=O)O` [Example 3, (2S,5R)-sulfuric acid mono-[2-(5-piperidin-4-ylmethyl-[1,3,4]-oxadiazol-2-yl)-7-oxo-1,6-diaza-bicyclo[3.2.1]oct-6-yl] ester], the 50% inhibitory concentration (IC50) in assay [1] was 5720 nM; in assay [2] it was 20 nM; in assay [3] it was 39 nM. Further, the MIC in assay [4], in assay [5] and in assay [6] (NCTC13353) was greater than 32 µg/mL in each case.
In the case of `O=C1N2C[C@@H](CC[C@H]2c2nnc(CCCc3ccccc3)o2)N1OS(=O)(=O)O` [Example 7, (2S,5R)-sulfuric acid mono-{2-[5-(3-phenyl-propyl)-[1,3,4]-oxadiazol-2-yl]-7-oxo-1,6-diaza-bicyclo[3.2.1]oct-6-yl} ester], the figures for the IC50 in assay [1], in assay [2] and in assay [3] were 115 nM, 4 nM and 40 nM, respectively. In addition, the MIC in assay [4] (setting [7]) is 32 µg/mL (≈ 78.3 µM); in assay [5] (setting [8]) it was greater than 32 µg/mL; in assay [6] (setting [9]) it was greater than 32 µg/mL.
As to `O=C1N2C[C@@H](CC[C@H]2c2nnc(C[C@@H]3CCCN3)o2)N1OS(=O)(=O)O` [Example 2, (2S,5R)-sulfuric acid mono-[2-(5-(S)-pyrrolidin-2-ylmethyl-[1,3,4]-oxadiazol-2-yl)-7-oxo-1,6-diaza-bicyclo[3.2.1]oct-6-yl] ester], the IC50 in assay [1] is 12900 nM; in assay [3], 27 nM. Besides, the MIC in assay [4] (setting [7]) was 32 µg/mL (≈ 85.7 µM); in assay [5] (setting [8]), greater than 32 µg/mL; in assay [6] (setting [9]), greater than 32 µg/mL.
Turning to `O=C1N2C[C@@H](CC[C@H]2c2nnc(Cc3ccc(O)cc3)o2)N1OS(=O)(=O)O` [Example 13, (2S,5R)-sulfuric acid mono-{2-[5-(4-hydroxy-benzyl)-[1,3,4]-oxadiazol-2-yl]-7-oxo-1,6-diaza-bicyclo[3.2.1]oct-6-yl} ester], the figures for the concentration for half-maximal inhibition (IC50) in assay [1], in assay [2] and in assay [3] were 39 nM, 0.1 nM and 13 nM, respectively. Further, the minimum inhibitory concentration (MIC) in assay [4], in assay [5] and in assay [6] (NCTC13353) was greater than 32 µg/mL throughout.
Consider `O=C1N2C[C@@H](CC[C@H]2c2nnc(C(c3ccccc3)c3ccccc3)o2)N1OS(=O)(=O)O` [Example 8, (2S,5R)-sulfuric acid mono-[2-(5-benzhydryl-[1,3,4]-oxadiazol-2-yl)-7-oxo-1,6-diaza-bicyclo[3.2.1]oct-6-yl] ester], for which the results for the half-maximal inhibitory concentration (IC50) in assay [1], in assay [2] and in assay [3] were 8 nM, 17 nM and 37 nM, respectively. In addition, the MIC in assay [4] (setting [7]), in assay [5] (setting [8]) and in assay [6] (setting [9]) was greater than 32 µg/mL each time.
Take `O=C1N2C[C@@H](CC[C@H]2c2nnc(Cc3ccc(Cl)cc3)o2)N1OS(=O)(=O)O` [Example 10, (2S,5R)-sulfuric acid mono-{2-[5-(4-chloro-benzyl)-[1,3,4]-oxadiazol-2-yl]-7-oxo-1,6-diaza-bicyclo[3.2.1]oct-6-yl} ester]: the IC50 in assay [1] came to 108 nM; in assay [2], 10 nM. Further, the MIC in assay [4], in assay [5] and in assay [6] (NCTC13353) was greater than 32 µg/mL in each case.
Take `COc1ccc(Cc2nnc([C@@H]3CC[C@@H]4CN3C(=O)N4OS(=O)(=O)O)o2)cc1` [Example 14, (2S,5R)-sulfuric acid mono-{2-[5-(4-methoxy-benzyl)-[1,3,4]-oxadiazol-2-yl]-7-oxo-1,6-diaza-bicyclo[3.2.1]oct-6-yl} ester]: the concentration for half-maximal inhibition (IC50) in assay [1] came out at 80 nM; in assay [2] it was 13 nM. Besides, the MIC in assay [4] (setting [7]), in assay [5] (setting [8]) and in assay [6] (setting [9]) was greater than 32 µg/mL each time.

The values are drawn from patent US9845323B2, “2-(1,3,4-oxadiazol-2-yl)-7-oxo-1,6-diazabicyclo[3.2.1 ]octane derivatives and their use as antibacterial agents” (WOCKHARDT LIMITED, priority 2014, dated 2017).
